# According to patent publication US11147272B2, “Pyridone compounds and agricultural and horticultural fungicides comprising the same as active ingredients” (MITSUI CHEMICALS AGRO, INC., priority 2017, dated 2021):
# How the values were obtained:
# [1] = test system: Magnaporthe grisea; experiment: whole plant or invertebrate; format: in vivo; settings: for Test A control value class: class of control value
# [2] = test system: Alternaia brassicicola; experiment: Test Example C: Alternaria sooty spot on cabbage; format: in vivo; settings: for Test C control value class: class of control value
# Description: Seeds of a test plant (cabbage variety: Shikidori) were planted and cultivated until the cotyledons extended.
# <Control Value> Control value=100{1−(n/3)}
# [3] = test system: Puccinia recondita; experiment: Test Example E: Brown rust on wheat; format: in vivo; settings: for Test E control value class: class of control value
# [4] = test system: Phytophthora infestans; experiment: whole plant or invertebrate; format: in vivo; settings: for Test F control value class: class of control value
# [5] = test system: Botrytis cinerea; experiment: Test Example B: Gray mold on tomato; settings: for Test B control value class: class of control value
# [6] = test system: Plasmopara viticola; experiment: Test Example G: Downy mildew on vine; settings: for Test G control value class: Downy mildew on vine (Neomuscat), 2.5 ml/pot, assessed 7 to 10 days after inoculation; for Test G control value: 7 to 10 days after inoculation
# [7] = test system: Colletotrichum orbiculare; experiment: Test Example H: Anthracnose on cucumber; settings: for Test H control value class: Anthracnose on cucumber (Sagami Hanjiro), 2.5 ml/pot, assessed 6 to 10 days after inoculation; for Test H control value: 6 to 10 days after inoculation
# [8] = test system: Blumeria graminis f. sp. hordei; experiment: Test Example D: Powdery mildew on barley; settings: for Test D control value class: class of control value
# [9] = Alternaria sooty spot on cabbage
# [10] = Blast on rice, control value class
# [11] = Alternaria sooty spot on cabbage, control value class
# [12] = Brown rust on wheat, control value class
# [13] = Late blight on tomato, control value class
# [14] = Gray mold on tomato, control value class
# [15] = Downy mildew on vine, 250 ppm spray
# [16] = Anthracnose on cucumber, 250 ppm spray
# [17] = Powdery mildew on barley, control value class
# [18] = 250 ppm drug solution sprayed on test plant
# [19] = 250 ppm drug solution sprayed (2.5 ml/pot), grape Neomuscat
# [20] = 250 ppm drug solution sprayed (2.5 ml/pot), cucumber Sagami Hanjiro
compound,measurement,setting,value
CCn1c(-c2c(F)cc(F)cc2F)c(CC(C)C)cc(Br)c1=O [compound 40],Test A control value class,[1]; Blast on rice,H (more than 50% control value)
same,Test C control value class,[2]; [9],H (more than 50% control value)
same,Test E control value class,[3]; Brown rust on wheat,H (more than 50% control value)
same,Test F control value class,[4]; Late blight on tomato,L (50% or less control value)
same,Test B control value class,[5]; Gray mold on tomato,H (more than 50% control value)
same,Test G control value class,[6]; 250 ppm spray,L (50% or less control value)
same,Test H control value class,[7]; 250 ppm spray,H (more than 50% control value)
same,Test D control value class,[8]; Powdery mildew on barley,H (more than 50% control value)
CCn1c(-c2c(F)cc(F)cc2F)c(C(C)C)cc(Br)c1=O [compound 9],Test A control value class,[1]; Blast on rice,H (more than 50% control value)
same,Test C control value class,[2]; [9],H (more than 50% control value)
same,Test E control value class,[3]; Brown rust on wheat,H (more than 50% control value)
same,Test F control value class,[4]; Late blight on tomato,L (50% or less control value)
same,Test B control value class,[5]; Gray mold on tomato,H (more than 50% control value)
same,Test G control value class,[6]; 250 ppm spray,H (more than 50% control value)
same,Test H control value class,[7]; 250 ppm spray,H (more than 50% control value)
same,Test D control value class,[8]; Powdery mildew on barley,H (more than 50% control value)
CCn1c(-c2c(F)cc(OC)cc2F)c(C(C)(CC)OC)cc(Cl)c1=O (centres unmarked) [compound 55],Test A control value class,[1]; Blast on rice,H (more than 50% control value)
same,Test C control value class,[2]; [9],H (more than 50% control value)
same,Test E control value class,[3]; Brown rust on wheat,H (more than 50% control value)
same,Test F control value class,[4]; Late blight on tomato,L (50% or less control value)
same,Test B control value class,[5]; Gray mold on tomato,H (more than 50% control value)
same,Test G control value class,[6]; 250 ppm spray,L (50% or less control value)
same,Test H control value class,[7]; 250 ppm spray,H (more than 50% control value)
same,Test D control value class,[8]; Powdery mildew on barley,H (more than 50% control value)
CCn1c(-c2ccc(OC)cc2)c(C(C)(F)C(C)C)cc(Cl)c1=O (centres unmarked) [compound 249],Test A control value,[1]; [10],L (50% or less control value)
same,Test C control value,[2]; [11],H (more than 50% control value)
same,Test E control value,[3]; [12],H (more than 50% control value)
same,Test F control value,[4]; [13],L (50% or less control value)
same,Test B control value,[5]; [14],H (more than 50% control value)
same,Test G control value,[6]; [15],L (50% or less control value)
same,Test H control value,[7]; [16],H (more than 50% control value)
same,Test D control value,[8]; [17],L (50% or less control value)
CCc1ccc(=O)n(C)c1-c1ccc(OC)cc1Cl [compound 322],Test A control value,[1]; [10],L (50% or less control value)
same,Test C control value,[2]; [11],L (50% or less control value)
same,Test E control value,[3]; [12],H (more than 50% control value)
same,Test F control value,[4]; [13],L (50% or less control value)
same,Test B control value,[5]; [14],H (more than 50% control value)
same,Test G control value,[6]; [15],L (50% or less control value)
same,Test H control value,[7]; [16],H (more than 50% control value)
same,Test D control value,[8]; [17],L (50% or less control value)
CCn1c(-c2c(F)cc(F)cc2F)c(CC(C)(C)C)cc(Cl)c1=O [compound 169],Test A control value class,[1]; Blast on rice,H (more than 50% control value)
same,Test C control value class,[2]; [9],H (more than 50% control value)
same,Test E control value class,[3]; Brown rust on wheat,H (more than 50% control value)
same,Test F control value class,[4]; Late blight on tomato,H (more than 50% control value)
same,Test B control value class,[5]; Gray mold on tomato,H (more than 50% control value)
same,Test G control value class,[6]; 250 ppm spray,H (more than 50% control value)
same,Test H control value class,[7]; 250 ppm spray,H (more than 50% control value)
same,Test D control value class,[8]; Powdery mildew on barley,H (more than 50% control value)
CCCc1cc(Br)c(=O)n(C)c1-c1ccc(OC)cc1Br [compound 418],Test A control value,[1]; [18],L (50% or less control value)
same,Test C control value,[2]; [18],H (more than 50% control value)
same,Test E control value,[3]; [18],H (more than 50% control value)
same,Test F control value,[4]; [18],H (more than 50% control value)
same,Test B control value,[5]; [18],H (more than 50% control value)
same,Test G control value,[6]; [19],L (50% or less control value)
same,Test H control value,[7]; [20],H (more than 50% control value)
same,Test D control value,[8]; [18],L (50% or less control value)
CCc1cc(Cl)c(=O)n(CC)c1-c1c(F)cc(OC)cc1F [compound 390],Test A control value,[1]; [18],H (more than 50% control value)
same,Test C control value,[2]; [18],H (more than 50% control value)
same,Test E control value,[3]; [18],H (more than 50% control value)
same,Test F control value,[4]; [18],L (50% or less control value)
same,Test B control value,[5]; [18],H (more than 50% control value)
same,Test G control value,[6]; [19],H (more than 50% control value)
same,Test H control value,[7]; [20],H (more than 50% control value)
same,Test D control value,[8]; [18],H (more than 50% control value)
CCn1c(-c2c(F)cccc2OCOC)c(CC(C)C)cc(Cl)c1=O [compound 103],Test A control value class,[1]; Blast on rice,H (more than 50% control value)
same,Test C control value class,[2]; [9],H (more than 50% control value)
same,Test E control value class,[3]; Brown rust on wheat,H (more than 50% control value)
same,Test F control value class,[4]; Late blight on tomato,L (50% or less control value)
same,Test B control value class,[5]; Gray mold on tomato,H (more than 50% control value)
same,Test G control value class,[6]; 250 ppm spray,H (more than 50% control value)
same,Test H control value class,[7]; 250 ppm spray,H (more than 50% control value)
same,Test D control value class,[8]; Powdery mildew on barley,H (more than 50% control value)
COC(C)(c1cc(Cl)c(=O)n(C)c1-c1c(F)cc(F)cc1F)C(C)C (centres unmarked) [compound 452],Test A control value,[1]; [18],H (more than 50% control value)
same,Test C control value,[2]; [18],H (more than 50% control value)
same,Test E control value,[3]; [18],H (more than 50% control value)
same,Test F control value,[4]; [18],L (50% or less control value)
same,Test B control value,[5]; [18],H (more than 50% control value)
same,Test G control value,[6]; [19],H (more than 50% control value)
same,Test H control value,[7]; [20],H (more than 50% control value)
same,Test D control value,[8]; [18],H (more than 50% control value)
CCCOC(C)(c1cc(Cl)c(=O)n(CC)c1-c1ccc(F)cc1)C(C)C (centres unmarked) [compound 216],Test A control value,[1]; [10],L (50% or less control value)
same,Test C control value,[2]; [11],L (50% or less control value)
same,Test E control value,[3]; [12],L (50% or less control value)
same,Test F control value,[4]; [13],L (50% or less control value)
same,Test B control value,[5]; [14],L (50% or less control value)
same,Test G control value,[6]; [15],L (50% or less control value)
same,Test H control value,[7]; [16],L (50% or less control value)
same,Test D control value,[8]; [17],H (more than 50% control value)
CCn1c(-c2c(F)cccc2F)c(C(C)C(C)C)cc(Cl)c1=O (centres unmarked) [compound 198],Test A control value,[1]; [10],H (more than 50% control value)
same,Test C control value,[2]; [11],H (more than 50% control value)
same,Test E control value,[3]; [12],H (more than 50% control value)
same,Test F control value,[4]; [13],L (50% or less control value)
same,Test B control value,[5]; [14],H (more than 50% control value)
same,Test G control value,[6]; [15],L (50% or less control value)
same,Test H control value,[7]; [16],H (more than 50% control value)
same,Test D control value,[8]; [17],H (more than 50% control value)
CCn1c(-c2ccc(OC)cc2)c(CC(C)C)cc(Cl)c1=O [compound 195],Test A control value,[1]; [10],H (more than 50% control value)
same,Test C control value,[2]; [11],H (more than 50% control value)
same,Test E control value,[3]; [12],H (more than 50% control value)
same,Test F control value,[4]; [13],L (50% or less control value)
same,Test B control value,[5]; [14],H (more than 50% control value)
same,Test G control value,[6]; [15],L (50% or less control value)
same,Test H control value,[7]; [16],H (more than 50% control value)
same,Test D control value,[8]; [17],H (more than 50% control value)
